The values that follow come from PubChem BioAssay (NCI).

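96-well plates; 48 h exposure; 5 concentrations. Endpoints by linear interpolation between flanking doses. Not reached: highest tested concentration assigned. TGI marks complete inhibition of growth.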 Some results are limits rather than exact numbers.

Some test systems named below: HS 578T breast; T-47D breast; SF-295 CNS; MDA-N; SF-539 CNS; OVCAR-3 ovarian; NCI-H23 lung; NCI/ADR-RES ovarian; BT-549 breast; K-562 leukemia.
Experiment in all cases: NCI tumour cell line growth inhibition, 48 h

As for `COc1ncc(/C=C2\OC(=O)c3ccccc32)c(OC)n1`, the TGI in the assay on HS 578T breast, with T-47D breast, in the assay on SF-295 CNS, in the assay with MDA-N, with SF-539 CNS and in the assay with OVCAR-3 ovarian was more than 100 µM throughout. The TGI was more than 100 µM in the assay with NCI-H23 lung, more than 100 µM in the assay on NCI/ADR-RES ovarian, 10.9 µM with BT-549 breast and more than 100 µM in the assay with K-562 leukemia.
As for `O=C(OCc1ccccc1)N1CCNCCN(C(=O)OCc2ccccc2)CCNCC1`, the TGI with HS 578T breast is 54.5 µM; in the assay with T-47D breast it was 32.7 µM; in the assay on SF-295 CNS it was 64.3 µM; in the assay on MDA-N, 31 µM; in the assay with SF-539 CNS, 29.2 µM; in the assay with OVCAR-3 ovarian, more than 100 µM. In addition, the TGI in the assay on NCI/ADR-RES ovarian, in the assay with BT-549 breast and in the assay with K-562 leukemia was more than 100 µM each time.
In the case of `CCC(=O)NCC1CCCN2CCCCC12` (configuration not stated), the TGI with HS 578T breast, with T-47D breast, in the assay on SF-295 CNS, in the assay on MDA-N, in the assay with SF-539 CNS and in the assay with NCI-H23 lung was more than 100 µM each time. Further, the TGI with NCI/ADR-RES ovarian, with BT-549 breast and with K-562 leukemia was more than 100 µM throughout.
On to `Cc1ccc(NC(=O)c2ccc(OP(=O)(O)Nc3ccc(C)cc3)cc2)cc1`, for which the TGI in the assay with HS 578T breast, with T-47D breast, with SF-295 CNS, with MDA-N, in the assay with SF-539 CNS and in the assay on OVCAR-3 ovarian was more than 100 µM each time. The TGI with NCI-H23 lung, in the assay with NCI/ADR-RES ovarian, in the assay on BT-549 breast and with K-562 leukemia was more than 100 µM each time.
`S=C(N/N=C(/c1ccccc1)c1ccccn1)N(Cc1ccccn1)Cc1ccccn1`: the TGI was more than 29.8 µM with HS 578T breast; 2.82 µM in the assay with T-47D breast; 1.82 µM in the assay on SF-295 CNS; 7.62 µM with MDA-N; 3.45 µM in the assay with SF-539 CNS; 1.71 µM in the assay with OVCAR-3 ovarian. The TGI is 1.57 µM with NCI-H23 lung, 1.44 µM with NCI/ADR-RES ovarian, 1.51 µM in the assay with BT-549 breast and more than 100 µM in the assay with K-562 leukemia.
For `Cn1c(=O)c2c(nc3n2CC(C(=O)O)N3)n(C)c1=O` (configuration not stated), the TGI in the assay with HS 578T breast, with T-47D breast, in the assay with SF-295 CNS, in the assay on MDA-N, in the assay with SF-539 CNS and in the assay with OVCAR-3 ovarian was more than 100 µM in each case. The TGI in the assay with NCI-H23 lung, in the assay on NCI/ADR-RES ovarian, in the assay with BT-549 breast and in the assay with K-562 leukemia was more than 100 µM throughout.
Consider `CCCCOC(=O)Nc1ccc(S(=O)(=O)Nc2ccccc2Cl)cc1`, for which the TGI in the assay with HS 578T breast worked out at 53.8 µM; in the assay on T-47D breast, 87.1 µM; in the assay with SF-295 CNS, 32.9 µM; in the assay with MDA-N, 33.8 µM; in the assay with SF-539 CNS, 32.7 µM; with OVCAR-3 ovarian, 44.3 µM. In addition, the TGI in the assay with NCI-H23 lung turned out to be 77.7 µM; in the assay with NCI/ADR-RES ovarian, 43.4 µM; with BT-549 breast it was 39.2 µM; with K-562 leukemia, 43.1 µM.
With `Cc1cccc(Cn2c3c(c4cc(O)ccc42)C(=O)c2ccccc2C3=O)c1`, the TGI was more than 100 µM in the assay on HS 578T breast; more than 100 µM in the assay with T-47D breast; 21.9 µM in the assay on SF-295 CNS; more than 100 µM with MDA-N; 26.9 µM in the assay on SF-539 CNS; more than 31.6 µM with OVCAR-3 ovarian. Also, the TGI was more than 100 µM in the assay with NCI-H23 lung, more than 67.8 µM in the assay on NCI/ADR-RES ovarian, more than 86.7 µM in the assay on BT-549 breast and more than 100 µM in the assay with K-562 leukemia.
`CCCCCC1=CC(=O)C1(Cl)Cl`: the TGI was more than 81.3 µM in the assay on HS 578T breast; more than 52.2 µM in the assay with T-47D breast; 62.1 µM with SF-295 CNS; 28.3 µM with MDA-N; 38.9 µM with SF-539 CNS; 27 µM in the assay with OVCAR-3 ovarian. Also, the TGI amounted to 49.7 µM with NCI-H23 lung, 86.6 µM in the assay with NCI/ADR-RES ovarian, 56.8 µM with BT-549 breast and 19.8 µM with K-562 leukemia.
Turning to `Nc1nccc(-c2c[nH]c3cc(Br)ccc23)n1`, the TGI with HS 578T breast is 75.7 µM; in the assay on T-47D breast, more than 100 µM; in the assay with SF-295 CNS it was more than 100 µM; in the assay on MDA-N, 45.8 µM; in the assay on SF-539 CNS it was more than 100 µM; in the assay on OVCAR-3 ovarian, more than 100 µM. The TGI in the assay on NCI-H23 lung was 88.4 µM; in the assay on NCI/ADR-RES ovarian, more than 100 µM; in the assay on BT-549 breast, more than 100 µM; in the assay on K-562 leukemia it was more than 100 µM.
With `O=C(N/N=C/c1ccc(Cl)cc1)c1c(Cl)c(Cl)c(Cl)c(Cl)c1-c1nc2ccccc2[nH]1`, the TGI in the assay on HS 578T breast was more than 100 µM; with T-47D breast, 47.5 µM; with SF-295 CNS, more than 100 µM; with MDA-N, more than 100 µM; in the assay on SF-539 CNS, more than 100 µM; in the assay with OVCAR-3 ovarian it was more than 100 µM. In addition, the TGI in the assay on NCI-H23 lung, in the assay with NCI/ADR-RES ovarian, in the assay with BT-549 breast and in the assay on K-562 leukemia was more than 100 µM in each case.
As to `Cc1ccnc(NS(=O)(=O)c2ccc(N=[N+]=[N-])cc2)n1`, the TGI with HS 578T breast, in the assay on T-47D breast, in the assay on SF-295 CNS, in the assay with MDA-N, in the assay with SF-539 CNS and with OVCAR-3 ovarian was more than 100 µM each time. The TGI in the assay on NCI-H23 lung, in the assay with NCI/ADR-RES ovarian, in the assay with BT-549 breast and in the assay with K-562 leukemia was more than 100 µM throughout.
Consider `c1ccc2c(c1)Cn1c-2nc2ccccc21`, for which the TGI in the assay with HS 578T breast, with T-47D breast, in the assay with SF-295 CNS, in the assay on MDA-N, with SF-539 CNS and in the assay with OVCAR-3 ovarian was more than 100 µM in each case. The TGI in the assay with NCI-H23 lung, with NCI/ADR-RES ovarian, in the assay with BT-549 breast and in the assay on K-562 leukemia was more than 100 µM each time.
As to `CC1(C(=O)O)CCC2(C)CCC3(C)C(=CC(=O)C4C5(C)CCC(O)C(C)(C)C5CCC43C)C2C1` (configuration not stated), the TGI was 65.7 µM in the assay on HS 578T breast; 99.1 µM in the assay with T-47D breast; 70.1 µM with SF-295 CNS; more than 100 µM in the assay on MDA-N; 32.5 µM with SF-539 CNS; 37.4 µM with OVCAR-3 ovarian. The TGI in the assay with NCI-H23 lung was 44.8 µM; with NCI/ADR-RES ovarian, more than 100 µM; with BT-549 breast, 42.3 µM.
